Experimental data from PubChem BioAssay AID743030 (The Scripps Research Institute Molecular Screening Center, 2013).

How the values were obtained:
Experiment in all cases: plasma and brain homogenate binding extent – biochemical, LC-MS, human, mouse, rat plasma, rat brain, ADME assay for V1a-R antagonist project, late-stage follow-up (AID 743030)
Conditions in all cases: equilibrium dialysis, 16 h, at 2.5 µM; call rule not given here
Rat plasma proteins = system: Rat plasma proteins
Human plasma proteins = system: Human plasma proteins
Rat brain tissue = system: Rat brain tissue
Mouse plasma proteins = system: Mouse plasma proteins

Measured: fraction bound

O=C(C1CCN(c2ccc(Cl)cn2)CC1)N(CC1CC1)c1ccc(Cl)cc1
active: Rat plasma proteins 99.5% | Human plasma proteins 99.4% | Rat brain tissue > 99.5% | Mouse plasma proteins 97.7%
